Literature values as cited in patent US20090317451A1, “PRESSURE-SENSITIVE ADHESIVE FOR SKIN SURFACE AND/OR TRANSDERMAL SUBSTANCE DELIVERY” (priority 2008, published 2009).
Where a name gives a salt, the structure may show the parent alone.

Settings: solvent(s) in which soluble; Merck 12th edition or other reference

SMILES	Reported Solubility
CC(=O)Nc1ccc(O)cc1 [Acetaminophen]	Alcohol
Nc1nc2c(ncn2COCCO)c(=O)[nH]1 [Acyclovir]	Alcohol
CC(C)(C)NCC(O)c1ccc(O)c(CO)c1 (centres unmarked) [Albuterol]	Alcohol
CC(=O)Oc1ccccc1C(=O)O [Aspirin, acetylsalicylic acid]	Alcohol
CCOC(=O)c1ccc(N)cc1 [Benzocaine]	Alcohol
CC12CCC(CC1=O)C2(C)C (centres unmarked) [Camphor]	Alcohol
Cc1cc(C2CCCCC2)n(O)c(=O)c1 [Ciclopirox]	Alcohol
COc1cc(/C=C/C(=O)CC(=O)/C=C/c2ccc(O)c(OC)c2)ccc1O [Curcumin]	Alcohol
COc1cccc2c1C(=O)c1c(O)c3c(c(O)c1C2=O)C[C@@](O)(C(=O)CO)C[C@@H]3O[C@H]1C[C@H](N)[C@H](O)[C@H](C)O1 [Doxorubicin]	Alcohol
CC[C@H]1OC(=O)[C@H](C)[C@@H](O[C@H]2C[C@@](C)(OC)[C@@H](O)[C@H](C)O2)[C@H](C)[C@@H](O[C@@H]2O[C@H](C)C[C@H](N(C)C)[C@H]2O)[C@](C)(O)C[C@@H](C)C(=O)[C@H](C)[C@@H](O)[C@]1(C)O [Erythromycin hydrate]	Alcohol
CC(=O)OCC(CCn1cnc2cnc(N)nc21)COC(C)=O [Famciclovir]	Alcohol
Oc1ccc(C2CNCCc3c2cc(O)c(O)c3Cl)cc1 (centres unmarked) [Fenoldopam]	Alcohol
O=C(CCCN1CCC(O)(c2ccc(Cl)cc2)CC1)c1ccc(F)cc1 [Haloperidol]	Alcohol
CC(C)Cc1ccc(C(C)C(=O)O)cc1 (centres unmarked) [Ibuprofen]	Alcohol
CC(C)Cn1cnc2c(N)nc3ccccc3c21 [Imiquimod]	Glycerol +
CC(=O)N1CCN(c2ccc(OCC3COC(Cn4ccnc4)(c4ccc(Cl)cc4Cl)O3)cc2)CC1 (centres unmarked) [Ketoconazole]	Alcohol
CS(C)(=O)=O [MSM, dimethyl sulfone, dimethyl sulfone]	Alcohol
Cc1ncc([N+](=O)[O-])n1CCO [Netronidazole]	Water, alcohol
C#C[C@]1(OC(C)=O)CC[C@H]2[C@@H]3CCC4=CC(=O)CC[C@@H]4[C@H]3CC[C@@]21C [Norethindrone acetate]	Alcohol
CC(=O)O[C@H]1C(=O)[C@@]2(C)[C@H]([C@H](OC(=O)c3ccccc3)[C@]3(O)C[C@H](OC(=O)[C@H](O)[C@@H](NC(=O)c4ccccc4)c4ccccc4)C(C)=C1C3(C)C)[C@]1(OC(C)=O)CO[C@@H]1C[C@@H]2O [Paclitaxel]	Alcohol
Nc1nc2c(ncn2CCC(CO)CO)c(=O)[nH]1 [Penciclovir]	Water
CC[C@@H]1C(=O)OC[C@@H]1Cc1cncn1C [Pilocarpine]	Alcohol
CC(CN1c2ccccc2Sc2ccccc21)N(C)C (centres unmarked) [Promethazine]	Alcohol
CN(C/C=C/C#CC(C)(C)C)Cc1cccc2ccccc12 [Terbinafinehydrochloride]	Alcohol

Same assay, conditions: solvent(s) in which soluble; Merck 12th edition or other reference; listed as Liquimod

SMILES	Reported Solubility
CC(C)Cn1cnc2c(N)nc3ccccc3c21 [Imiquimod]	Alcohol

Settings: in glycerol; Merck 12th edition #886

SMILES	decomposition by moisture
CC(=O)Oc1ccccc1C(=O)O [Aspirin, acetylsalicylic acid]	glycerol hinders the decomposition
